Data set [1] deals with third-instar larvae of diamond back moth. Put plainly: Test 4: Effect on Diamond Back Moth. Format: in vivo. To be noted: Plutella xylostella, 24 hours. The procedure:
(§1) To a mixture of 20 parts of the compound of the present invention and 20 parts of Sorpol SM-200 (registered trademark for the product supplied by Toho Chemical Industrial Co., Ltd.) was added 60 parts of xylol, and the mixture was sufficiently blended. The obtained emulsifiable concentrate was diluted at a predetermined concentration with distilled water, and the obtained dilution was used.
Cabbage leaves were spread in a plastic cup, and 10 third-instar larvae of diamond back moth were set free in the cup.
A chemical dilution having a concentration of 100 or 20 ppm, prepared in the same manner as described in Test 1, was applied from an applicator at a rate of 3 ml per cup.
After scattering of the chemical dilution, the cup was covered, and after 24 hours, the numbers of killed and living larvae were counted and the mortality was calculated. The test was made on three cups and the average value was calculated.

The next data set has as its system German cockroach. The data set is described as follows: Test 7: Effect on German Cockroach. Format: in vivo. As to conditions: Blattella germanica, male adults, 24 hours, agonized and killed; for mortality at 10 mg/m2: 10 mg/m^2; for mortality at 50 mg/m2: 50 mg/m^2. The procedure:
The bottom face of a high Petri dish having a diameter of 9 cm and a height of 9 cm was treated with 50 or 10 mg/m^2 of a test compound and the dish was air-dried. In order to prevent the adults from escaping from the dish, the inner wall of the dish was treated with butter. Then, 10 male adults of German cockroach were set free in each dish, and the dish was placed in a thermostat chamber maintained at 25° C. After 24 hours, the number of agonized and killed adults was counted. The test was made on two dishes and the average value was calculated.

The next data set can be described thus: Test 8: Fish Toxicity. Format: in vivo. To be noted: carp, water, carps, concentration at which 1/2 of the test fishes were killed, read-out: Fish Toxicity, TLm48. The procedure:
A water tank having a width of 60 cm, a length of 30 cm and a height of 40 cm was filled with water, and 10 yearling carps having a body length of about 5 cm were set free in the tank and adapted to the environment in the tank. A test compound was applied so that the concentration in water was 10, 1, or 0.1 ppm. After 48 hours, the numbers of killed and living carps were counted and the influences on the fishes were examined.

The subject of data set [2] is Second-instar and fifth-instar larvae of tobacco cutworm. The data set is described as follows: Test 2: Tobacco Cutworm Larva Dipping Test. Format: in vivo. The method, then:
as §1
A dilution having a chemical concentration of 100 or 20 ppm was prepared in the same manner as described in Test 1.
Second-instar and fifth-instar larvae of tobacco cutworm were dipped in the dilution for 5 seconds, and the excessive dilution was removed by a filter paper. Then, the larvae were set free in a plastic cup and an artificial diet was supplied thereto. The cup was allowed to stand still in a thermostat chamber maintained at 25° C. After 24 hours, the numbers of the killed and living larvae were counted and the mortality was calculated. The test was made on three cups and the result was expressed by an average value.

Data set [3] deals with resistant green rice leafhopper (collected at Nakagawara). Put plainly: Test 3: Effect on Resistant Green Rice Leafhopper. Format: in vivo, Nephotettix cincticeps Uhler. To be noted: Nephotettix cincticeps, 24 h, read-out: Mortality (%) Green Rice Leafhopper Collected at Nakagawara. The method, then:
as §1
(§2) Seedlings (having 2 to 3 leaves) of paddy rice were hydroponically cultured in a pot having a diameter of 5 cm. A chemical dilution having a concentration of 100 or 20 ppm, prepared in the same manner as described in Test 1, was applied with a sprayer at a rate of 3 ml per pot. The treated seedlings were air-dried and covered with a metal net cylinder, and female adults of resistant green rice leafhopper (collected at Nakagawara) and sensitive green rice leafhopper (collected at Chigasaki) were set, respectively, free in the pot at a density of 10 adults per pot. After of 24 hours, the numbers of killed and living adults were counted and the mortality was calculated. The test was made on three pots and the average value was calculated.

Data set [4] concerns sensitive green rice leafhopper (collected at Chigasaki). The data set is described as follows: Test 3: Effect on Sensitive Green Rice Leafhopper. In kind it is in vivo. To be noted: Nephotettix cincticeps, female adults, 24 hours. The procedure:
as §1, §2

A further data set deals with green peach aphids. Put plainly: Test 5: Effect on green peach Aphid. Format: in vivo. As to conditions: Myzus persicae, 24 hours, mortality class, read-out: Insecticidal Activity. The method, then:
as §1
Seedlings (having 3 to 4 leaves) of an eggplant grown on a pot were inoculated with green peach aphids and the insects were allowed to grow. The number of the insects was counted. A chemical dilution having a concentration of 100 ppm, prepared in the same manner as described in Test 1, was applied with a spray gun at a rate of 10 ml per pot. Then, the pot was placed in a glass green house. After 24 hours, the number of living insects was counted and the mortality was calculated.
The test was made on three pots, and the average value was calculated. In Table 6, mark "A" indicates a mortality higher than 95%, mark "B" indicates a mortality of 80 to 95%, mark "C" indicates a mortality of 50 to 80%, and mark "D" indicates a mortality lower than 50%.

The next data set deals with two-spotted spider mite. The data set is described as follows: Test 6: Effect on Two-Spotted Spider mite adults. As to conditions: Tetranychus urticae; 500 ppm; adults; 24 hours; read-out: Mortality (%). Format: in vivo. The method, then:
as §1
A kidney bean leaf disc perforated with a cork borer (15 mm in diameter) was placed on water-impreganated absorbent cotton (2 cm×2 cm), and 10 adults of two-spotted spider mite were set free. A chemical dilution having a concentration of 500 ppm was applied with an applicator in an amount of 3 ml.
The leaf disc-placed absorbent cotton was placed in a thermostat chamber maintained at 25° C. After 24 hours, the number of killed adults was counted and the mortality was calculated. The test was made on three leaf discs and the average value was calculated.

The nature of data set [5]: Test 9: Toxicity Test (acute oral, mice). As to conditions: mouse, in vivo, po. The method, then:
In the fish toxicity test, the test compound was dissolved in acetone to form a 1% solution, and a predetermined amount of the solution was used. In the mouse toxicity test, the test compound of the present invention was dissolved or suspended in corn oil, and a predetermined amount of the solution or suspension was used.
A predetermined amount of a solution or suspension of a test compound in corn oil was orally administered to male mice having a body weight of 19 to 23 g (0.2 ml per 10 g of the body weight). After 7 days, the number of killed mice was counted and the influences on the mice were examined.

[6] abbreviates: 20 ppm, second-instar larvae, 24 hours, read-out: Mortality (%) Second-Instar Larvae.
[7] abbreviates: 100 ppm, second-instar larvae, 24 hours, read-out: Mortality (%) Second-Instar Larvae.
[8] abbreviates: topical, 24 h, read-out: Mortality (%) Fifth-Instar Larvae.

Read-outs that look alike come from different tables or passages of the source.

Take `COc1ccc(C(C)(C)COCc2ccc(F)c(Oc3ccccc3)c2)cc1` [Compound 16, 3-Phenoxy-4-fluorobenzyl 2-(4-methoxyphenyl)-2-methylpropyl ether]: in data set [1], the mortality at 20 ppm was determined as 80% and the mortality at 100 ppm came to 100%. Further, in the data set on German cockroach, the mortality at 10 mg/m2 was 90% and the mortality at 50 mg/m2 stood at 100%. The LC50 at 48 h in the data set “Test 8: Fish Toxicity” is > 0.5 µg/mL.

Regarding `Cc1cccc(C(C)(C)COCc2ccc(F)c(Oc3ccccc3)c2)c1` [Compound 19, 3-phenoxy-4-fluorobenzyl 2-(3-methylphenyl)-2-methylpropylether], in data set [1], the mortality at 20 ppm worked out at 100% and the mortality at 100 ppm was found to be 100%. In the data set on German cockroach, this molecule came in with a mortality at 10 mg/m2 of 90% and a mortality at 50 mg/m2 of 100%. Moreover, the LC50 at 48 h in “Test 8: Fish Toxicity” is > 1 µg/mL.

On to `CC(C)(COCc1ccc(F)c(Oc2ccccc2)c1)c1ccc(OC(F)F)cc1` [Compound 21, 3-Phenoxy-4-fluorobenzyl 2-(4-difluoromethoxyphenyl)-2-methylpropyl ether], for which the mortality at 20 ppm in data set [2] (setting [6]), in data set [2] (setting [8]), in data set [3], in data set [4] and in data set [1] was 100% in each case. For the same molecule, the mortality at 100 ppm in data set [2] (setting [7]) was 100%; in data set [2] (setting [8]) it was 100%; in data set [3], 100%; in [4] it was 100%; in [1] it was 100%; in the data set with green peach aphids, > 95%. In the data set on two-spotted spider mite, the mortality at 500 ppm stood at 100%. This molecule returned a mortality at 10 mg/m2 in the data set on German cockroach of 100%. Moreover, the mortality at 50 mg/m2 in the data set on German cockroach turned out to be 100%.

In [1], `CC(C)(COCc1ccc(F)c(Oc2ccc(F)cc2)c1)c1ccc(Cl)c(Cl)c1` [Compound 24, 3-(4-Fluorophenoxy)-4-fluorobenzyl 2-(3,4-dichlorophenyl)-2-methylpropyl ether] had a mortality at 20 ppm of 90% and a mortality at 100 ppm of 100%. In the data set “Test 8: Fish Toxicity”, the LC50 at 48 h was > 1 µg/mL.

Take `CCOc1ccc(C(C)(C)COCc2ccc(F)c(Oc3ccccc3)c2)cc1` [Compound 36, 3-Phenoxy-4-fluorobenzyl 2-(4-ethoxyphenyl)-2-methylpropyl ether]: the mortality at 20 ppm in data set [2] (setting [6]), in [2] (setting [8]), in data set [3], in [4] and in data set [1] was 100% throughout. Also, the mortality at 100 ppm was 100% in [2] (setting [7]); 100% in [2] (setting [8]); 100% in data set [3]; 100% in data set [4]; 100% in data set [1]; > 95% in the data set with green peach aphids. Further, the mortality at 10 mg/m2 with German cockroach is 100%. For the same molecule, in the data set on German cockroach, the mortality at 50 mg/m2 is 100%. Also, the LD50 (as a rule, the dose expected to kill half of the subjects tested) at 168 h in data set [5] was > 500 mg/kg.

As for `CC(C)Oc1ccc(C(C)(C)COCc2ccc(F)c(Oc3ccccc3)c2)cc1` [Compound 41], the mortality at 20 ppm in [2] (setting [6]), in [2] (setting [8]), in [3], in data set [4] and in data set [1] was 100% throughout. Further, the mortality at 100 ppm in [2] (setting [7]) was 100%; in data set [2] (setting [8]) it was 100%; in data set [3] it was 100%; in data set [4] it was 100%; in data set [1], 100%; with green peach aphids, > 95%. Besides, in the data set with two-spotted spider mite, the mortality at 500 ppm worked out at 90%. In the data set on German cockroach, the mortality at 10 mg/m2 was determined as 100%. Also, the mortality at 50 mg/m2 in the data set on German cockroach is 100%.

In [1], `CCSc1ccc(C(C)(C)COCc2ccc(F)c(Oc3ccccc3)c2)cc1` [Compound 42, 3-Phenoxy-4-fluorobenzyl 2-(4-ethylthiophenyl)-2-methylpropyl ether] registered a mortality at 20 ppm of 100% and a mortality at 100 ppm of 100%. Moreover, the mortality at 100 ppm in the data set with green peach aphids was > 95%. For the same molecule, the mortality at 500 ppm in the data set on two-spotted spider mite came out at 100%.

In the case of `CC(C)(COCc1ccc(F)c(Oc2ccccc2)c1)c1ccc(OC2CCCCC2)cc1` [Compound 46, 3-Phenoxy-4-fluorobenzyl 2-(4-cyclohexyloxyphenyl)-2-methylpropyl ether], the mortality at 20 ppm in data set [3] and in data set [4] was 100% each time. Further, the mortality at 100 ppm in [3] and in [4] was 100% throughout. In the data set with two-spotted spider mite, the mortality at 500 ppm is 100%. Further, the LC50 at 48 h in the data set “Test 8: Fish Toxicity” was > 1 µg/mL.

Turning to `CCOc1ccc(C(C)(C)CSCc2ccc(F)c(Oc3ccccc3)c2)cc1Cl` [Compound 51], in data set [1], the mortality at 20 ppm is 80% and the mortality at 100 ppm stood at 100%. Also, the mortality at 100 ppm in the data set on green peach aphids was > 95%. For the same molecule, the mortality at 500 ppm in the data set with two-spotted spider mite was 90%. In the data set with German cockroach, the mortality at 10 mg/m2 was 100% and the mortality at 50 mg/m2 amounted to 100%. For the same molecule, the LD50 at 168 h in [5] is > 500 mg/kg.

Turning to `CC(C)Sc1ccc(C(C)(C)COCc2ccc(F)c(Oc3ccccc3)c2)cc1` [Compound 54, 3-Phenoxy-4-fluorobenzyl 2-(4-isopropylthiophenyl)-2-methylpropyl ether], in data set [1], the mortality at 20 ppm is 100% and the mortality at 100 ppm came to 100%. Further, the mortality at 100 ppm in the data set on green peach aphids is > 95%. For the same molecule, the mortality at 500 ppm with two-spotted spider mite was found to be 100%. For the same molecule, in the data set with German cockroach, the mortality at 10 mg/m2 is 100% and the mortality at 50 mg/m2 was 100%. Also, the median lethal dose (LD50) at 168 h in [5] is > 500 mg/kg.

Regarding `CCOc1ccc(C(C)(C)COCc2ccc(F)c(Oc3ccccc3)c2)cc1C` [Compound 67], the mortality at 20 ppm in data set [2] (setting [6]), in [2] (setting [8]), in data set [3], in data set [4] and in data set [1] was 100% each time. The mortality at 100 ppm was 100% in data set [2] (setting [7]); 100% in data set [2] (setting [8]); 100% in data set [3]; 100% in data set [4]; 100% in [1]; > 95% in the data set with green peach aphids. Besides, the mortality at 500 ppm in the data set with two-spotted spider mite amounted to 100%. In the data set on German cockroach, this molecule gave a mortality at 10 mg/m2 of 100%. For the same molecule, the mortality at 50 mg/m2 in the data set with German cockroach was 100%.
